Reference: PubChem BioAssay (NCI)
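In this assay, cells in 96-well plates receive the compound at five concentrations for 48 hours. Endpoints are linearly interpolated between the surrounding concentrations. GI50: concentration for 50% inhibition of growth. TGI: concentration producing complete growth inhibition.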

How the values were obtained:
Test in all cases: NCI tumour cell line growth inhibition, 48 h
[1] = tested on: M19-MEL melanoma
[2] = tested on: RXF-631 renal
[3] = tested on: DLD-1 colon
[4] = tested on: LXFL 529 NSCLC
[5] = tested on: XF 498 CNS
[6] = tested on: MCF7 breast
[7] = tested on: P388 leukemia
[8] = tested on: SN12K1 renal

| SMILES | GI50 [1] [µM] | TGI [1] [µM] | GI50 [2] [µM] | TGI [2] [µM] | GI50 [3] [µM] | TGI [3] [µM] | GI50 [4] [µM] | TGI [4] [µM] | TGI [5] [µM] | TGI [6] [µM] | TGI [7] [µM] | TGI [8] [µM] | GI50 [5] [µM] |
| --- | --- | --- | --- | --- | --- | --- | --- | --- | --- | --- | --- | --- | --- |
| COC(C(=O)[O][Ge]([CH3])([CH3])[CH3])c1ccccc1 (stereo unspecified) | > 100 | > 100 | > 100 | > 100 | > 100 | > 100 | > 100 | > 100 | – | – | – | – | – |
| CCc1ccccc1NC(=O)C(=O)CC(=O)c1sc(Nc2ccccc2)nc1C | – | > 100 | – | > 100 | – | > 100 | – | > 100 | > 100 | – | – | – | – |
| CCOC(=O)COc1ccccc1/C=C1\CCC(CN(C)C)C1=O (stereo unspecified) | – | 8.98 | – | 34.4 | – | 12.2 | – | 6.36 | – | 19.8 | 1.54 | 3.47 | – |
| Nc1ccn(CCNCCn2cnc3nc(N)[nH]c(=O)c32)c(=O)n1 | – | – | – | > 100 | – | > 100 | – | > 100 | > 100 | – | – | – | – |
| O=c1/c(=C/c2ccccc2F)sc2nc3ccccc3n12 | – | > 100 | – | > 100 | – | > 100 | – | > 100 | > 100 | – | – | – | – |
| CC1=C(Oc2ccccc2)C(CCC(=O)O)c2c(O)cc(Cl)c(O)c21 (stereo unspecified) | – | > 100 | – | > 100 | – | > 100 | – | – | > 100 | – | – | – | – |
| CCOc1ccc(NC(=O)C(=O)CC(=O)C2=C(C)Nc3ccccc3S2)cc1 | – | > 50 | – | > 50 | – | > 50 | – | – | > 50 | – | – | – | – |
| Cc1[nH]ccc2c1[nH]c1cc(=O)ccc12 | – | > 100 | – | > 100 | – | > 100 | – | > 100 | > 100 | – | – | – | – |
| C#CCOCn1cnc2c(Cl)ncnc21 | – | > 100 | – | > 100 | – | > 100 | – | > 100 | > 100 | – | – | – | – |
| C=CCC[CH2][Sn]([c]1ccccc1)([c]1ccccc1)[c]1ccccc1 | 2.17 | 4.49 | 1.85 | 3.53 | 1.51 | 2.98 | 1.35 | 2.63 | 3.55 | – | – | – | 2.08 |
| CC1=C(C)C(=O)c2c(cc3ccccn23)C1=O | – | 4.42 | – | 21.7 | – | – | – | 28.6 | – | – | – | – | – |
| O=[N+]([O-])C1C2C=CC(C2)[C@H]1c1ccco1 (stereo partly specified) | – | > 100 | – | – | – | > 100 | – | > 100 | > 100 | – | – | – | – |
| CCCCCCCCCCCC(=O)OCC1OC(n2cc(F)c(=O)[nH]c2=O)C(NC(=O)OCc2ccccc2)C(OC(=O)CCCCCCCCCCC)C1O (stereo unspecified) | – | > 100 | – | > 100 | – | > 100 | – | > 100 | > 100 | – | – | – | – |
| CC1C=C(OC(=O)c2ccccc2)C(=O)C(n2cc(F)c(=O)[nH]c2=O)O1 (stereo unspecified) | – | > 100 | – | – | – | > 100 | – | > 100 | > 100 | – | – | – | – |
| Cc1cc(N(CCC#N)CCC#N)ccc1N=Nc1cccc(C(=O)O)c1 | – | > 100 | – | > 100 | – | > 100 | – | > 100 | > 100 | – | – | – | – |
| CSc1ccc(C2OC(=O)c3ccccc32)c2ccccc12 (stereo unspecified) | – | > 100 | – | > 100 | – | > 100 | – | > 100 | > 100 | – | – | – | – |
| CCCNC1=C(C(=O)OCC)C(=O)CO1 | – | > 100 | – | > 100 | – | > 100 | – | > 100 | > 100 | – | – | – | – |
| COc1cc(C(=O)C/C(CCCC(=O)Nc2ccccc2[N+](=O)[O-])=N/NC(=O)c2cc3ccccc3cc2O)ccc1O | – | – | – | > 100 | – | > 95 | – | – | > 100 | – | – | – | – |
| Cc1ccc(N=Cc2ccc3c(c2)OCO3)cc1C | – | > 100 | – | > 100 | – | > 100 | – | > 100 | > 100 | – | – | – | – |
